Source: US20170354148A1, “SAFENED HERBICIDAL COMPOSITIONS CONTAINING HALAUXIFEN AND METHODS OF USE THEREOF IN BRASSICA SPECIES” (Dow AgroSciences LLC, priority 2016, published 2017)

Assays:
[1] = system: Spring Argentine canola (Brassica napus, BRSNS); assay: Example 3 field trials (Canada), postemergence crop safety, visual phytotoxicity
[2] = system: spring oilseed rape (Brassica napus, BRSNS); assay: Example 4 field trials (Europe), postemergence crop safety, visual phytotoxicity

O=C(O)c1nc(Cl)ccc1Cl [Clopyralid-olamine, 2-hydroxyethanaminium 3,6-dichloro-2-pyridinecarboxylate]
Mean % Visual Injury ([1]; Table 23, 7DAAA, halauxifen-methyl 5, clopyralid-olamine 150 g ae/ha, alone or mixed): 2.0% | Mean % Visual Injury ([1]; Table 23, 17DAAA, halauxifen-methyl 5, clopyralid-olamine 150 g ae/ha, alone or mixed): 1.0% | Mean % Visual Injury ([1]; Table 23, 32DAAA, halauxifen-methyl 5, clopyralid-olamine 150 g ae/ha, alone or mixed): 2.0% | Mean % Visual Injury ([1]; Table 23, 49DAAA, halauxifen-methyl 5, clopyralid-olamine 150 g ae/ha, alone or mixed): 0.8% | Mean % Visual Injury ([1]; Table 24, 7DAAA, halauxifen-methyl 5, clopyralid-olamine 150 g ae/ha alone, or both mixed with isoxadifen-ethyl 20 g ae/ha): 2.0% | Mean % Visual Injury ([1]; Table 24, 17DAAA, halauxifen-methyl 5, clopyralid-olamine 150 g ae/ha alone, or both mixed with isoxadifen-ethyl 20 g ae/ha): 1.0% | Mean % Visual Injury ([1]; Table 24, 32DAAA, halauxifen-methyl 5, clopyralid-olamine 150 g ae/ha alone, or both mixed with isoxadifen-ethyl 20 g ae/ha): 2.0% | Mean % Visual Injury ([1]; Table 24, 49DAAA, halauxifen-methyl 5, clopyralid-olamine 150 g ae/ha alone, or both mixed with isoxadifen-ethyl 20 g ae/ha): 0.8% | Mean % Visual Injury ([1]; Table 28, 7DAAA, halauxifen-methyl 5, clopyralid-olamine 150, quinclorac 101 g ae/ha, alone or mixed): 2.0% | Mean % Visual Injury ([1]; Table 28, 17DAAA, halauxifen-methyl 5, clopyralid-olamine 150, quinclorac 101 g ae/ha, alone or mixed): 1.0% | Mean % Visual Injury ([1]; Table 28, 32DAAA, halauxifen-methyl 5, clopyralid-olamine 150, quinclorac 101 g ae/ha, alone or mixed): 2.0% | Mean % Visual Injury ([1]; Table 28, 49DAAA, halauxifen-methyl 5, clopyralid-olamine 150, quinclorac 101 g ae/ha, alone or mixed): 0.8% | Mean % Visual Growth Inhibition ([1]; Trial 1, 16DAA1, halauxifen-methyl 2.5, clopyralid-olamine 150 g ae/ha, alone or mixed): 5.5% | Mean % Visual Growth Inhibition ([1]; Trial 1, 30DAA1, halauxifen-methyl 2.5, clopyralid-olamine 150 g ae/ha, alone or mixed): 6.3% | Mean % Visual Growth Inhibition ([1]; Trial 1, 58DAA1, halauxifen-methyl 2.5, clopyralid-olamine 150 g ae/ha, alone or mixed): 2.8% | Mean % Visual Growth Inhibition ([1]; Trial 2, 32DAA1, halauxifen-methyl 0.62, clopyralid-olamine 150 g ae/ha, alone or mixed): 2.8% | Mean % Visual Growth Inhibition ([1]; Trial 2, 32DAA1, halauxifen-methyl 1.25, clopyralid-olamine 150 g ae/ha, alone or mixed): 2.8% | Mean % Visual Growth Inhibition ([1]; Trial 2, 32DAA1, halauxifen-methyl 2.5, clopyralid-olamine 150 g ae/ha, alone or mixed): 2.8% | Mean % Visual Growth Inhibition ([1]; Trial 2, 49DAA1, halauxifen-methyl 0.62, clopyralid-olamine 150 g ae/ha, alone or mixed): 2.8% | Mean % Visual Growth Inhibition ([1]; Trial 2, 49DAA1, halauxifen-methyl 1.25, clopyralid-olamine 150 g ae/ha, alone or mixed): 2.8% | Mean % Visual Growth Inhibition ([1]; Trial 2, 49DAA1, halauxifen-methyl 2.5, clopyralid-olamine 150 g ae/ha, alone or mixed): 2.8% | Mean % Visual Growth Inhibition ([1]; Trial 3, 8DAA1, halauxifen-methyl 5, clopyralid-olamine 150 g ae/ha, alone or mixed, line r23): 0.8% | Mean % Visual Growth Inhibition ([1]; Trial 3, 8DAA1, halauxifen-methyl 5, clopyralid-olamine 150 g ae/ha, alone or mixed, line r25): 0.3% | Mean % Visual Growth Inhibition ([1]; Trial 3, 8DAA1, halauxifen-methyl 10, clopyralid-olamine 150 g ae/ha, alone or mixed, line r22): 0.8% | Mean % Visual Growth Inhibition ([1]; Trial 3, 8DAA1, halauxifen-methyl 10, clopyralid-olamine 150 g ae/ha, alone or mixed, line r24): 0.3% | Mean % Visual Growth Inhibition ([1]; Trial 3, 17DAA1, halauxifen-methyl 5, clopyralid-olamine 150 g ae/ha, alone or mixed, line r27): 1.0% | Mean % Visual Growth Inhibition ([1]; Trial 3, 17DAA1, halauxifen-methyl 5, clopyralid-olamine 150 g ae/ha, alone or mixed, line r29): 1.3% | Mean % Visual Growth Inhibition ([1]; Trial 3, 17DAA1, halauxifen-methyl 10, clopyralid-olamine 150 g ae/ha, alone or mixed, line r26): 1.0% | Mean % Visual Growth Inhibition ([1]; Trial 3, 17DAA1, halauxifen-methyl 10, clopyralid-olamine 150 g ae/ha, alone or mixed, line r28): 1.3% | Mean % Visual Growth Inhibition ([1]; Trial 3, 35DAA1, halauxifen-methyl 10, clopyralid-olamine 150 g ae/ha, alone or mixed): 0.8% | Mean % Visual Growth Inhibition ([1]; Trial 3, 48DAA1, halauxifen-methyl 5, clopyralid-olamine 150 g ae/ha, alone or mixed, line r31): 2.0% | Mean % Visual Growth Inhibition ([1]; Trial 3, 48DAA1, halauxifen-methyl 5, clopyralid-olamine 150 g ae/ha, alone or mixed, line r32): 0.8% | Mean % Visual Growth Inhibition ([1]; Trial 4, 13DAA1, halauxifen-methyl 10, clopyralid-olamine 150 g ae/ha, alone or mixed, line r33): 0.0% | Mean % Visual Growth Inhibition ([1]; Trial 4, 13DAA1, halauxifen-methyl 10, clopyralid-olamine 150 g ae/ha, alone or mixed, line r34): 0.0% | Mean % Visual Growth Inhibition ([1]; Trial 5, 7DAA1, halauxifen-methyl 0.62, clopyralid-olamine 150 g ae/ha, alone or mixed): 1.3% | Mean % Visual Growth Inhibition ([1]; Trial 5, 7DAA1, halauxifen-methyl 1.25, clopyralid-olamine 150 g ae/ha, alone or mixed): 1.3% | Mean % Visual Growth Inhibition ([1]; Trial 5, 7DAA1, halauxifen-methyl 2.5, clopyralid-olamine 150 g ae/ha, alone or mixed): 1.3% | Mean % Visual Growth Inhibition ([1]; Trial 5, 7DAA1, halauxifen-methyl 5, clopyralid-olamine 150 g ae/ha, alone or mixed): 1.3% | Mean % Visual Growth Inhibition ([1]; Trial 6, 33DAA1, halauxifen-methyl 5, clopyralid-olamine 150 g ae/ha, alone or mixed): 0.5% | Mean % Visual Growth Inhibition ([1]; Trial 7, 8DAA1, halauxifen-methyl 5, clopyralid-olamine 150 g ae/ha, alone or mixed): 1.5% | Mean % Visual Growth Inhibition ([1]; Trial 7, 15DAA1, halauxifen-methyl 0.62, clopyralid-olamine 150 g ae/ha, alone or mixed): 1.0% | Mean % Visual Growth Inhibition ([1]; Trial 7, 15DAA1, halauxifen-methyl 5, clopyralid-olamine 150 g ae/ha, alone or mixed): 1.0% | Mean % Visual Growth Inhibition ([1]; Trial 8, 7DAA1, halauxifen-methyl 5, clopyralid-olamine 150 g ae/ha, alone or mixed): 0.5% | Mean % Visual Growth Inhibition ([1]; Trial 8, 7DAA1, halauxifen-methyl 10, clopyralid-olamine 150 g ae/ha, alone or mixed, line r44): 0.0% | Mean % Visual Growth Inhibition ([1]; Trial 8, 7DAA1, halauxifen-methyl 10, clopyralid-olamine 150 g ae/ha, alone or mixed, line r45): 0.0% | Mean % Visual Growth Inhibition ([1]; Trial 8, 7DAA1, halauxifen-methyl 10, clopyralid-olamine 150 g ae/ha, alone or mixed, line r46): 1.3% | Mean % Visual Growth Inhibition ([1]; Trial 8, 7DAA1, halauxifen-methyl 10, clopyralid-olamine 150 g ae/ha, alone or mixed, line r47): 1.5% | Mean % Visual Growth Inhibition ([1]; Trial 8, 15DAA1, halauxifen-methyl 5, clopyralid-olamine 150 g ae/ha, alone or mixed): 0.0% | Mean % Visual Growth Inhibition ([1]; Trial 8, 15DAA1, halauxifen-methyl 10, clopyralid-olamine 150 g ae/ha, alone or mixed, line r49): 0.0% | Mean % Visual Growth Inhibition ([1]; Trial 8, 15DAA1, halauxifen-methyl 10, clopyralid-olamine 150 g ae/ha, alone or mixed, line r50): 0.5% | Mean % Visual Growth Inhibition ([1]; Trial 9, 6DAA1, halauxifen-methyl 5, clopyralid-olamine 150 g ae/ha, alone or mixed): 0.0% | Mean % Visual Growth Inhibition ([1]; Trial 9, 23DAA1, halauxifen-methyl 2.5, clopyralid-olamine 150 g ae/ha, alone or mixed): 0.0% | Mean % Visual Growth Inhibition ([1]; Trial 9, 23DAA1, halauxifen-methyl 5, clopyralid-olamine 150 g ae/ha, alone or mixed): 0.0% | Mean % Visual Growth Inhibition ([1]; Trial 9, 33DAA1, halauxifen-methyl 5, clopyralid-olamine 150 g ae/ha, alone or mixed): 0.0% | Mean % Visual Growth Inhibition ([1]; Trial 9, 59DAA1, halauxifen-methyl 5, clopyralid-olamine 150 g ae/ha, alone or mixed): 0.0% | Mean % Visual Growth Inhibition ([1]; Trial 10, 17DAA1, halauxifen-methyl 5, clopyralid-olamine 100 g ae/ha, alone or mixed): 0.0% | Mean % Visual Growth Inhibition ([1]; Trial 10, 17DAA1, halauxifen-methyl 5, clopyralid-olamine 150 g ae/ha, alone or mixed): 0.0% | Mean % Visual Growth Inhibition ([1]; Trial 10, 17DAA1, halauxifen-methyl 5, clopyralid-olamine 200 g ae/ha, alone or mixed): 0.0% | Mean % Visual Growth Inhibition ([1]; Trial 10, 27DAA1, halauxifen-methyl 5, clopyralid-olamine 150 g ae/ha, alone or mixed): 0.0% | Mean % Visual Growth Inhibition ([1]; Trial 10, 27DAA1, halauxifen-methyl 5, clopyralid-olamine 200 g ae/ha, alone or mixed): 1.7% | Mean % Visual Growth Inhibition ([1]; Trial 11, 7DAA1, halauxifen-methyl 5, clopyralid-olamine 150 g ae/ha, alone or mixed): 2.5% | Mean % Visual Growth Inhibition ([1]; Trial 11, 15DAA1, halauxifen-methyl 0.62, clopyralid-olamine 150 g ae/ha, alone or mixed): 3.0% | Mean % Visual Growth Inhibition ([1]; Trial 11, 15DAA1, halauxifen-methyl 1.25, clopyralid-olamine 150 g ae/ha, alone or mixed): 3.0% | Mean % Visual Growth Inhibition ([1]; Trial 12, 15DAA1, halauxifen-methyl 10, clopyralid-olamine 150 g ae/ha, alone or mixed): 0.0% | Mean % Visual Growth Inhibition ([1]; Trial 12, 27DAA1, halauxifen-methyl 5, clopyralid-olamine 150 g ae/ha, alone or mixed): 1.0% | Mean % Visual Growth Inhibition ([2]; Trial 1, 14DAA1, 125 g ae/ha alone): 3.0% | Mean % Visual Growth Inhibition ([2]; Trial 1, 14DAA1, 250 g ae/ha alone): 3.0% | Mean % Visual Growth Inhibition ([2]; Trial 2, 17DAA1, 100 g ae/ha alone): 0.0% | Mean % Visual Growth Inhibition ([2]; Trial 2, 17DAA1, 120 g ae/ha alone): 2.3% | Mean % Visual Growth Inhibition ([2]; Trial 2, 24DAA1, 100 g ae/ha alone): 0.0% | Mean % Visual Growth Inhibition ([2]; Trial 2, 24DAA1, 120 g ae/ha alone): 2.0%
